{"source": "patent US9464092B2", "about": "“Transient protection of normal cells during chemotherapy” (G1 Therapeutics, Inc., priority 2013, dated 2016)", "key": {"[1]": {"experiment": "Metabolic stability in liver microsomes", "format": "in vitro ADME, human, dog, rat, monkey, and mouse", "conditions": "Sprague-Dawley (rat), liver microsomes, pH 7.4; each of the species tested (human, monkey, dog, rat, mouse), 1 uM", "protocol": "Human, mouse, and dog liver microsomes were purchased from Xenotech, and Sprague-Dawley rat liver microsomes were prepared by Absorption Systems. The reaction mixture comprising 0.5 mg/mL of liver microsomes, 100 mM of potassium phosphate, pH 7.4, 5 mM of magnesium chloride, and 1 uM of test compound was prepared. The test compound was added into the reaction mixture at a final concentration of 1 uM. An aliquot of the reaction mixture (without cofactor) was incubated in shaking water bath at 37 deg. C. for 3 minutes. The control compound, testosterone, was run simultaneously with the test compound in a separate reaction. The reaction was initiated by the addition of cofactor (NADPH), and the mixture was then incubated in a shaking water bath at 37 deg. C. Aliquots (100 μL) were withdrawn at 0, 10, 20, 30, and 60 minutes for the test compound and 0, 10, 30, and 60 minutes for testosterone. […] Test compound samples were analyzed using the Orbitrap high resolution mass spectrometer to quantify the disappearance of parent test compound and detect the appearance of metabolites. […] Half-lives were calculated using GraphPad software, fitting to a single-phase exponential decay equation.\nWhen calculated half-life was longer than the duration of the experiment, the half-life was expressed as >the longest incubation time. The calculated half-life is also listed in parentheses. […]"}, "[2]": {"system": "HS68 cells (human fibroblast, Rb-positive)", "experiment": "Cellular wash-out experiment, HS68", "format": "cell-based", "protocol": "EMBO J, 21(12)2936-2945 (2002) and Ruas et al. Mol Cell Biol, 27(12)-4273-4282 (2007)). […] On day 3, one set of treated cell samples were harvested in triplicate (0 Hour sample). Remaining cells were washed two times in PBS-CMF and returned to culture media lacking test compound. Sets of samples were harvested in triplicate at 24, 40, and 48 hours. Upon harvesting cells, samples were stained with propidium iodide staining solution and samples run on Dako Cyan Flow Cytometer. The fraction of cells in G0-G1 DNA cell cycle versus the fraction in S-phase DNA cell cycle was determined using FlowJo 7.2 0.2 analysis."}, "[3]": {"system": "HSPC (LKS+) and myeloid progenitor cells (LKS-)", "conditions": "single oral dose 150 mg/kg, mice; cited from earlier work"}, "[4]": {"system": "RB-intact, Cdk4/6-dependent cell line (WM2664 or tHS68)", "experiment": "EdU proliferation, RB-intact Cdk4/6-dependent cell line", "conditions": "24 hours"}, "[5]": {"conditions": "mice; cited from earlier work"}, "[6]": {"experiment": "PD0332991 pharmacokinetics / HSPC arrest in humans", "format": "in vivo", "protocol": "When calculated half-life was longer than the duration of the experiment, the half-life was expressed as >the longest incubation time. The calculated half-life is also listed in parentheses. […] The timely resumption of cellular proliferation is necessary for tissue repair, and therefore an overly long period of arrest is undesirable in healthy cells such as HSPCs. The characteristics of a CDK4/6 inhibitor that dictate its arresting duration are its pharmacokinetic (PK) and enzymatic half-lives. Once initiated, a G1-arrest in vivo will be maintained as long as circulating compound remains at an inhibitory level, and as long as the compound engages the enzyme. […] […]. […] […]. These observations may explain the severe granulocytopenia seen with PD0332991 in the clinic."}, "[7]": {"conditions": "Grade 3/4 neutropenia and leukopenia; cited from earlier work"}, "[8]": {"conditions": "humans; cited from earlier work"}, "[9]": {"system": "RB-negative SCLC cell lines (H69, H82, H209, H345, NCI417, or SHP-77)", "experiment": "EdU proliferation, RB-negative SCLC cell lines", "conditions": "24 hours"}, "[10]": {"system": "human renal proximal tubule epithelial cells (Rb-positive)", "experiment": "Cellular wash-out experiment, renal proximal tubule epithelial cells", "format": "cell-based", "conditions": "300 nM, compared to compounds T, Q, GG, or U", "protocol": "Alternatively, the same experiment was done using normal Renal Proximal Tubule Epithelial Cells (Rb-positive) obtained from American Type Culture Collection (ATCC, Manassas, Va.). Cells were grown in an incubator at 37° C. in a humidified atmosphere of 5% CO2 in Renal Epithelial Cell Basal Media (ATCC) supplemented with Renal Epithelial Cell Growth Kit (ATCC) in 37° C. humidified incubator.\nUpon harvesting cells, samples were stained with propidium iodide staining solution and samples run on Dako Cyan Flow Cytometer. The fraction of cells in G0-G1 DNA cell cycle versus the fraction in S-phase DNA cell cycle was determined using FlowJo 7.2 0.2 analysis."}}, "note": "Like-named read-outs stand apart in the source and are kept apart here.", "data": [{"smiles": "CC(=O)c1c(C)c2cnc(Nc3ccc(N4CCNCC4)cn3)nc2n(C2CCCC2)c1=O", "note": "[PD0332991, 6-acetyl-8-cyclopentyl-5-methyl-2-(5-piperazin-1-yl-pyridin-2-ylammino)-8H-pyrido-[2,3-d]-pyrimidin-7-one]", "values": [{"measurement": "half-life at 1 uM", "setting": "[1]", "result": "> 1", "unit": "h"}, {"measurement": "time post wash out for cells to return to normal baseline cell division", "setting": "[2]; 300 nM, HS68 cells", "result": "greater than 48 hours"}, {"measurement": "duration of cell cycle arrest in human cells after compound is removed (wash-out)", "setting": "[2]; in vitro wash-out experiment", "result": "more than forty hours"}, {"measurement": "duration of sustained reduction in HSPC and myeloid progenitor EdU incorporation", "setting": "[3]", "result": "greater than 36 hours"}, {"measurement": "time post oral dosing at which HSPC and myeloid progenitor cells return to baseline cell division", "setting": "[3]", "result": 48, "unit": "h"}, {"measurement": "effect on proliferation (EdU, percent of cells in S-phase)", "setting": "[4]", "result": "inhibits the Rb-positive cell line (WM2664)"}, {"measurement": "PK half-life", "setting": "[5]", "result": 6, "unit": "h"}, {"measurement": "duration of cell cycle arrest of HSPC after a single administration", "setting": "[6]", "result": "approximately one week"}, {"measurement": "patients requiring a dose interruption", "setting": "[7]", "result": 71, "unit": "%"}, {"measurement": "patients requiring a dose reduction", "setting": "[7]", "result": 35, "unit": "%"}, {"measurement": "PK half-life", "setting": "[8]", "result": 27, "unit": "h"}, {"measurement": "effect on proliferation (EdU, percent of cells in S-phase)", "setting": "[9]", "result": "does not affect the growth of the Rb-negative small cell lung cancer cell lines"}, {"measurement": "return to baseline levels of cell division after wash out", "setting": "[10]", "result": "took significantly longer to return to baseline levels of cell division"}]}]}
